Results reported in a compilation of properties of binary mixtures (doi:10.1021/acs.jced.0c00801).

Experiment: xn = mol fraction of the nth substance listed
Conditions: 101 kPa

CCO + CC[n+]1ccn(C)c1.N#C[S-]
x2 = 0
Conditions | speed of sound [m/s] | viscosity [mPa·s]
283.15 K | 1194.7 | 1.44
313.15 K | 1092.2 | 0.83
323.15 K | 1059.1 | 0.7

CC[n+]1ccn(C)c1.N#C[S-] + CCO
Conditions | speed of sound, 283.15 K [m/s] | speed of sound, 293.15 K [m/s] | speed of sound, 303.15 K [m/s] | speed of sound, 313.15 K [m/s] | speed of sound, 323.15 K [m/s] | viscosity, 283.15 K [mPa·s] | viscosity, 293.15 K [mPa·s] | viscosity, 303.15 K [mPa·s] | viscosity, 313.15 K [mPa·s] | viscosity, 323.15 K [mPa·s]
x1 = 0.0504 | 1281.9 | 1249.4 | – | – | 1155 | 1.93 | 1.58 | – | – | 0.94
x1 = 0.1001 | 1345.1 | 1314.4 | 1284.3 | 1254.6 | 1225.4 | 2.34 | 1.91 | 1.59 | 1.34 | 1.14
x1 = 0.2012 | 1466.4 | 1438.1 | – | 1382.8 | 1355.8 | 3.49 | 2.88 | – | 1.93 | 1.64
x1 = 0.3003 | 1560.9 | 1534 | 1507.4 | 1481.3 | 1455.6 | 4.8 | 3.84 | 3.14 | 2.63 | 2.24
x1 = 0.3945 | 1641 | 1614.9 | 1589.2 | 1563.9 | 1539.2 | 6.72 | 5.3 | 4.29 | 3.56 | 3
x1 = 0.5007 | 1711 | 1685.5 | 1660.4 | 1635.8 | 1611.5 | 9.41 | 7.24 | 5.73 | 4.67 | 3.91
x1 = 0.6016 | 1768.2 | 1743.3 | 1718.9 | – | 1671.5 | 12.82 | 9.63 | 7.51 | – | 4.97
x1 = 0.7018 | 1805.7 | 1781.1 | 1757 | – | – | 16.95 | 12.52 | 9.54 | – | –
x1 = 0.8045 | – | 1813.9 | 1790 | 1766.5 | 1743.5 | – | 16.42 | 12.35 | 9.58 | 7.66
x1 = 0.8971 | – | – | 1813.9 | – | 1767.8 | – | – | 15.08 | – | 9.05
x1 = 0.951 | 1875.9 | 1851.7 | – | 1804.6 | – | 34.19 | 23.87 | – | 13 | –
x1 = 1 | 1887.6 | 1863.4 | 1839.7 | – | 1793.9 | 38.41 | 26.31 | 19.03 | – | 11.1
